In brackets after ≈: the same amount, converted by molar mass. Read-outs that look alike come from different tables or passages of the source.
What was measured:
[1] = test system: Staphylococcus aureus; assay: in vivo therapeutic activity on mice experimentally infected with Staphylococcus aureus; design: species or system male Swiss Cobs albino mice; conditions: for ED50: Staphylococcus aureus, sc, 168 h, Table 2, 2 LD50/mouse i.p., subcutaneous treatment 4 h after infection, 7 days, read-out: ED50 (dose effective in curing 50% of the infected mice); for effectiveness on experimental staphylococcal infections: in words, compared with cephazolin and cephalothin
Description: (§1) In vivo tests for therapeutic activity were carried out on mice experimentally infected with Staphylococcus aureus and Salmonella abortivoequina (Infective dose: 2 LD50 /mouse i.p.); groups of 6 male Swiss Cobs albino mice were used. The infected animals were treated by the subcutaneous route 4 h after infection. The mortality rate was recorded every day for 7 days. The activity was assessed as ED50 (Dose effective in curing 50% of the infected mice as mg/Kg--see Reed and Muench, Am. J. Hyg. 27, 493, 1938.)

[2] = test system: S.pyogenes; assay: in vitro MIC by serial dilution, S.pyogenes; assay type: cell-based; conditions: Streptococcus pyogenes, read-out: MIC (minimal inhibitory concentration)
Description: (§2) A series of comparative tests was carried out in vitro with the method of serial dilutions in Penassay Seed Broth Difco inoculated with 10^4 bacteria/ml (overnight cultures).
(§3) Table 1 below reports the results of the above assays as MIC (minimal inhibitory concentration, mcg/ml).

[3] = test system: P.mirabilis; assay: in vitro MIC by serial dilution, P.mirabilis; assay type: cell-based; conditions: Proteus mirabilis, read-out: MIC (minimal inhibitory concentration)
Description: as §2, §3

[4] = test system: S.aureus; assay: in vitro MIC by serial dilution, S.aureus; assay type: cell-based, Staphylococcus aureus; conditions: for MIC: Staphylococcus aureus, read-out: MIC (minimal inhibitory concentration); for antistaphylococcal activity: in words, compared with cephazolin and cephalothin
Description: as §2, §3

[5] = test system: E.coli B; assay: in vitro MIC by serial dilution, E.coli B; assay type: cell-based; conditions: Escherichia coli, read-out: MIC (minimal inhibitory concentration)
Description: as §2, §3

[6] = test system: S.flexneri; assay: in vitro MIC by serial dilution, S.flexneri; assay type: cell-based; conditions: Shigella flexneri, read-out: MIC (minimal inhibitory concentration)
Description: as §2, §3

[7] = test system: K.pneumoniae; assay: in vitro MIC by serial dilution, K.pneumoniae; assay type: cell-based; conditions: Klebsiella pneumoniae, read-out: MIC (minimal inhibitory concentration)
Description: as §2, §3

[8] = test system: S.abortivoequina; assay: in vitro MIC by serial dilution, S.abortivoequina; assay type: cell-based; conditions: Salmonella, read-out: MIC (minimal inhibitory concentration)
Description: as §2, §3

[9] = test system: S.typhimurium; assay: in vitro MIC by serial dilution, S.typhimurium; assay type: cell-based; conditions: Salmonella enterica, read-out: MIC (minimal inhibitory concentration)
Description: as §2, §3

[10] = test system: Salmonella abortivoequina; assay: in vivo therapeutic activity on mice experimentally infected with Salmonella abortivoequina; design: species or system male Swiss Cobs albino mice; conditions: sc, 168 h
Description: as §1

[11] = S.pyogenes, serial dilutions in Penassay Seed Broth Difco, 10^4 bacteria/ml
[12] = P.mirabilis, serial dilutions in Penassay Seed Broth Difco, 10^4 bacteria/ml
[13] = S.aureus, serial dilutions in Penassay Seed Broth Difco, 10^4 bacteria/ml
[14] = E.coli B, serial dilutions in Penassay Seed Broth Difco, 10^4 bacteria/ml
[15] = S.flexneri, serial dilutions in Penassay Seed Broth Difco, 10^4 bacteria/ml
[16] = K.pneumoniae, serial dilutions in Penassay Seed Broth Difco, 10^4 bacteria/ml
[17] = S.abortivoequina, serial dilutions in Penassay Seed Broth Difco, 10^4 bacteria/ml
[18] = S.typhimurium, serial dilutions in Penassay Seed Broth Difco, 10^4 bacteria/ml
[19] = mice infected with Salmonella abortivo equina, subcutaneous 4 h after infection, read-out: ED50

Row | SMILES | ED50 [1] | MIC [2, 11] | MIC [3, 12] | MIC [4, 13] | antistaphylococcal activity [4] | MIC [5, 14] | MIC [6, 15] | MIC [7, 16] | MIC [8, 17] | MIC [9, 18] | further results
1 | O=C(Cc1ccccc1)NC1C(=O)N2C(C(=O)O)=C(CSc3cnccn3)CS[C@H]12 (some centres unmarked) [Compound 308, 7-phenylacetamido-3-pyrazinylthiomethyl-3-cephem-4-carboxylic acid] | 17.5 mg/kg | 1.5 µg/mL (≈ 3.39 µM) | 50 µg/mL (≈ 113 µM) | 0.012 µg/mL (≈ 0.0271 µM) | excellent antistaphylococcal activity, clearly superior to that of known cephalosporins | 1 to 2 µg/mL (≈ 2.26 to 4.52 µM) | 50 µg/mL (≈ 113 µM) | 0.75 µg/mL (≈ 1.69 µM) | 100 µg/mL (≈ 226 µM) | – | effectiveness on experimental staphylococcal infections [1]: more effective than cephazolin and cephalothin
2 | Cc1nnc(SCC2=C(C(=O)O)N3C(=O)[C@@H](NC(=O)Cn4cnnn4)[C@H]3SC2)s1 [cephazolin, reference compound] | 30 mg/kg | 1.25 µg/mL (≈ 2.75 µM) | 3.1 µg/mL (≈ 6.82 µM) | 0.1 µg/mL (≈ 0.22 µM) | – | 1.25 µg/mL (≈ 2.75 µM) | 1.5 µg/mL (≈ 3.3 µM) | 0.6 µg/mL (≈ 1.32 µM) | 1.25 µg/mL (≈ 2.75 µM) | 1.5 µg/mL (≈ 3.3 µM) | ED50 [10, 19]: 25 mg/kg
3 | CC(=O)OCC1=C(C(=O)O)N2C(=O)C(NC(=O)CSc3cnccn3)C2SC1 (centres unmarked) [Compound 312, 7-pyrazinylthioacetamidocephalosporanic acid] | 40 mg/kg | 3.1 µg/mL (≈ 7.3 µM) | – | – | – | – | – | 1.5 µg/mL (≈ 3.53 µM) | 25 µg/mL (≈ 58.9 µM) | – | MIC [4]: 0.12 µg/mL (≈ 0.283 µM); MIC [5]: 5 µg/mL (≈ 11.8 µM); MIC [6]: 12.5 µg/mL (≈ 29.4 µM)
4 | COc1cncc(SCC2=C(C(=O)O)N3C(=O)C(NC(=O)Cc4cccs4)C3SC2)n1 (centres unmarked) [Compound 321, 7-(2-Thienyl)-acetamido-3-(6-methoxypyrazin-2-ylthiomethyl)-3-cephem-4-carboxylic acid] | 15 mg/kg | 0.12 µg/mL (≈ 0.251 µM) | 10 µg/mL (≈ 20.9 µM) | 0.037 µg/mL (≈ 0.0773 µM) | – | 1.25 µg/mL (≈ 2.61 µM) | 10 µg/mL (≈ 20.9 µM) | 0.25 µg/mL (≈ 0.522 µM) | 20 µg/mL (≈ 41.8 µM) | 20 µg/mL (≈ 41.8 µM) | ED50 [10, 19]: 50 mg/kg
5 | NC(=O)c1cncc(SCC2=C(C(=O)O)N3C(=O)C(NC(=O)Cc4cccs4)C3SC2)n1 (centres unmarked) [Compound 313, 7-(2-thienyl)-acetamido-3-(6-carboxamidopyrazin-2-ylthiomethyl)-3-cephem-4-carboxylic acid] | 20 mg/kg | 1.25 µg/mL (≈ 2.54 µM) | 50 µg/mL (≈ 102 µM) | 0.012 µg/mL (≈ 0.0244 µM) | excellent antistaphylococcal activity, clearly superior to that of known cephalosporins | 2.5 µg/mL (≈ 5.09 µM) | 6.25 µg/mL (≈ 12.7 µM) | 1.25 µg/mL (≈ 2.54 µM) | – | 12.5 µg/mL (≈ 25.4 µM) | effectiveness on experimental staphylococcal infections [1]: more effective than cephazolin and cephalothin; MIC [8]: 6.25 µg/mL (≈ 12.7 µM)
6 | O=C(Cc1cccs1)NC1C(=O)N2C(C(=O)O)=C(CSc3cnccn3)CSC12 (centres unmarked) [Compound 314, 7-(2-thienyl)-acetamido-3-pyrazinylthiomethyl-3-cephem-4-carboxylic acid] | 20 mg/kg | 1.25 µg/mL (≈ 2.79 µM) | 25 µg/mL (≈ 55.7 µM) | 0.003 µg/mL (≈ 0.00669 µM) | – | 0.6 µg/mL (≈ 1.34 µM) | 6.25 µg/mL (≈ 13.9 µM) | 0.6 µg/mL (≈ 1.34 µM) | – | – | MIC ([9]; TYPHIMURIUM): 6.25 µg/mL (≈ 13.9 µM); MIC [8]: 6.25 µg/mL (≈ 13.9 µM)
7 | O=C(Cn1cnnn1)NC1C(=O)N2C(C(=O)O)=C(CSc3cnccn3)CSC12 (centres unmarked) [Compound 318, 7-[1-(1H)-tetrazolylacetamido]-3-pyrazinylthiomethyl-3-cephem-4-carboxylic acid] | – | – | 12.5 µg/mL (≈ 28.8 µM) | 0.097 µg/mL (≈ 0.223 µM) | – | 6.25 µg/mL (≈ 14.4 µM) | 3.1 µg/mL (≈ 7.14 µM) | 3.1 µg/mL (≈ 7.14 µM) | 3.1 µg/mL (≈ 7.14 µM) | 12.5 µg/mL (≈ 28.8 µM) | –
8 | O=C(Cc1ccccc1)NC1C(=O)N2C(C(=O)O)=C(CSc3cncc(Cl)n3)CSC12 (centres unmarked) [Compound 310, 7-phenylacetamido-3-(6-chlorpyrazin-2-ylthiomethyl)-3-cephem-4-carboxylic acid] | 35 mg/kg | 6.2 µg/mL (≈ 13 µM) | – | 0.06 µg/mL (≈ 0.126 µM) | excellent antistaphylococcal activity, clearly superior to that of known cephalosporins | 0.6 µg/mL (≈ 1.26 µM) | > 50 µg/mL | 0.1 µg/mL (≈ 0.21 µM) | 50 µg/mL (≈ 105 µM) | – | –
9 | O=C(Cc1ccccc1)NC1C(=O)N2C(C(=O)O)=C(CSc3c[n+]([O-])ccn3)CSC12 (centres unmarked) [356/307, 7-phenylacetamido-3-(pyrazin-2-ylthiomethyl-4-oxide)-3-cephem-4-carboxylicacid] | – | 1.5 µg/mL (≈ 3.27 µM) | – | 0.012 µg/mL (≈ 0.0262 µM) | excellent antistaphylococcal activity, clearly superior to that of known cephalosporins | 6 µg/mL (≈ 13.1 µM) | 12.5 µg/mL (≈ 27.3 µM) | 1.5 µg/mL (≈ 3.27 µM) | 25 µg/mL (≈ 54.5 µM) | – | –
10 | CC(=O)OCC1=C(C(=O)O)N2C(=O)[C@@H](NC(=O)Cc3cccs3)[C@H]2SC1 [cephalothin, reference compound] | 30 mg/kg | – | – | 0.1 µg/mL (≈ 0.252 µM) | – | 1.25 µg/mL (≈ 3.15 µM) | 1.5 µg/mL (≈ 3.78 µM) | – | – | – | MIC [2]: 1.25 µg/mL (≈ 3.15 µM); MIC ([9]; TYPHIMURIUM): 3 µg/mL (≈ 7.57 µM); MIC [3]: 6.2 µg/mL (≈ 15.6 µM); ED50 ([10]; Salmonella): 50 mg/kg; MIC [7]: 0.3 µg/mL (≈ 0.757 µM); MIC [8]: 1.5 µg/mL (≈ 3.78 µM)
11 | O=C(CSc1cnccn1)NC1C(=O)N2C(C(=O)O)=C(CSc3cncc(Cl)n3)CSC12 (centres unmarked) [Compound 315, 7-pyrazinylthioacetamido-3-(6-chloropyrazin-2-ylthiomethyl)-3-cephem-4-carboxylic acid] | 40 mg/kg | 1.25 µg/mL (≈ 2.45 µM) | > 50 µg/mL | 0.006 µg/mL (≈ 0.0117 µM) | excellent antistaphylococcal activity, clearly superior to that of known cephalosporins | 2.5 µg/mL (≈ 4.89 µM) | 50 µg/mL (≈ 97.8 µM) | 1.25 µg/mL (≈ 2.45 µM) | > 50 µg/mL | > 50 µg/mL | –
12 | O=C(CSc1cnccn1)NC1C(=O)N2C(C(=O)O)=C(CSc3c[n+]([O-])ccn3)CSC12 (centres unmarked) [Compound 316, 7-pyrazinylthioacetamido-3-(pyrazin-2-ylthiomethyl-4-oxide)-3-cephem-4-carboxylic acid] | 40 mg/kg | 2.5 µg/mL (≈ 5.08 µM) | > 50 µg/mL | 0.025 µg/mL (≈ 0.0508 µM) | excellent antistaphylococcal activity, clearly superior to that of known cephalosporins | 5 µg/mL (≈ 10.2 µM) | 12.5 µg/mL (≈ 25.4 µM) | 2.5 µg/mL (≈ 5.08 µM) | – | 50 µg/mL (≈ 102 µM) | MIC [8]: 12.5 µg/mL (≈ 25.4 µM)
13 | NC(=O)c1cncc(SCC2=C(C(=O)O)N3C(=O)C(NC(=O)Cc4ccccc4)C3SC2)n1 (centres unmarked) [Compound 311, 7-phenylacetamido-3-(6-carboxamidopyrazin-2-ylthiomethyl)-3-cephem-4-carboxylic acid] | 17.5 mg/kg | 1.5 µg/mL (≈ 3.09 µM) | > 50 µg/mL | 0.06 µg/mL (≈ 0.124 µM) | – | 5 µg/mL (≈ 10.3 µM) | 12.5 µg/mL (≈ 25.7 µM) | 1.5 to 2.5 µg/mL (≈ 3.09 to 5.15 µM) | > 50 µg/mL | – | effectiveness on experimental staphylococcal infections [1]: more effective than cephazolin and cephalothin
14 | COc1nccnc1SCC1=C(C(=O)O)N2C(=O)C(NC(=O)Cc3cccs3)C2SC1 (centres unmarked) [Compound 317, 7-(2-thienyl)-acetamido-3-(3-methoxy-pyrazin-2-ylthiomethyl)-3-cephem-4-carboxylic acid] | – | – | 50 µg/mL (≈ 104 µM) | 0.005 µg/mL (≈ 0.0104 µM) | – | 1.5 µg/mL (≈ 3.13 µM) | 50 µg/mL (≈ 104 µM) | 1.5 µg/mL (≈ 3.13 µM) | > 50 µg/mL | > 50 µg/mL | –
